Common to all, as to type: in vivo
The test system of one data set is Oryza sativa (ORYSA). Nature of the data set: Post-emergence crop plant compatibility, greenhouse pot test. Particulars: Oryza sativa, in vivo. A digest of the protocol: (§1)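 Crops grown in sandy loam in the greenhouse were sprayed post-emergence at the one-leaf stage, 2–3 weeks after sowing, with WP or EC formulations plus 0.5% additive at 600 l/ha water. Damage was rated visually after about 3 weeks against untreated controls (0% = like control, 100% = dead).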

A further data set concerns Zea mays (ZEAMX). Described as above. The note with it: Zea mays, in vivo. The procedure, abridged:
as §1

Data set [1] deals with Triticum aestivum (TRZAS). The description is as above. Particulars: Triticum aestivum, in vivo. A digest of the protocol:
as §1

Another data set concerns Viola tricolor (VIOTR). Kind of data set: Post-emergence herbicidal action, greenhouse pot test. A digest of the protocol: (§2)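 Visual scoring against untreated plants (100% = dead, 0% = no effect), done about 3 weeks after treatment. Aqueous spray of WP or EC formulations plus 0.5% additive at 600 l/ha went onto green parts of one-leaf-stage, greenhouse-grown pot plants 2–3 weeks after sowing.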

The subject of data set [2] is Digitaria sanguinalis (DIGSA). The data set is described as above. The procedure, abridged: as §2
A further data set relates to Setaria viridis (SETVI). The data set is described as above. The procedure, abridged:
as §2

In data set [3] the test system is Abutilon theophrasti (ABUTH). The data set is described as above. The procedure, abridged: as §2
Data set [4] has as its system Alopecurus myosuroides (ALOMY). The data set is described as above. Particulars: for ALOMY (efficacy in %): Table B1 comparison, application rate 20 g/ha. A digest of the protocol:
as §2

Data set [5] deals with Pharbitis purpurea (PHBPU). The data set is described as above. The procedure, abridged: as §2
The subject of a further data set is Veronica persica (VERPE). The data set is described as above. The procedure, abridged:
as §2

Data set [6] relates to Amaranthus retroflexus (AMARE). The description is as above. The note with it: Amaranthus retroflexus, 504 h. A digest of the protocol:
as §2

Data set [7] deals with Echinochloa crus-galli (ECHCG). The data set is described as above. The note with it: for ECHCG (efficacy in %): Table B2 comparison, application rate 1.25 g/ha. A digest of the protocol: as §2
Data set [8] relates to Tripleurospermum inodorum (MATIN). The description is as above. Particulars: Tripleurospermum inodorum, 504 h, 20 g/ha, read-out: Post-emergence effect at 20 g/ha against MATIN in %. The procedure, abridged: as §2
Data set [9] relates to Polygonum convolvulus (POLCO). The data set is described as above. Particulars: Fallopia convolvulus, 504 h. A digest of the protocol:
as §2

Another data set concerns Avena fatura (AVEFA). Kind of data set: Comparative post-emergence herbicidal action, greenhouse pot test. Particulars: Table B3 comparison, application rate 20 g/ha. As for the experimental part:
(§3) Seeds of monocotyledonous and dicotyledonous weeds and crop plants were placed in sandy loam in plastic or wood-fibre pots, covered with soil and cultivated in a greenhouse under controlled growth conditions. 2 to 3 weeks after sowing, the test plants were treated at the one-leaf stage. The compounds of the invention, formulated in the form of wettable powders (WP) or as emulsion concentrates (EC), were then sprayed onto the green parts of the plants as aqueous suspension or emulsion with addition of 0.5% additive at a water application rate of 600 l/ha (converted). After the test plants had been kept in the greenhouse under optimum growth conditions for about 3 weeks, the activity of the preparations was rated visually in comparison to untreated controls. For example, 100% activity=the plants have died, 0% activity=like control plants.
Tables B1-B5 below show the effects of inventive compounds (I.7-12, I.7-14, I.7-16) that have been obtained by the test method specified above on various harmful plants at an application rate corresponding to 20 g/ha or lower by comparison with structurally similar compounds known from the literature (“a-27”, “a-29”, disclosed in WO2002/098227).

The test system of a further data set is crop plants. Kind of data set: Post-emergence crop plant compatibility, summary statements over several crops. The note with it: 5 g or less per hectare, ORYSA, ZEAMX, TRZAS. As for the experimental part:
as §3
The observed effects on selected crop plants are reported here in comparison to the untreated controls (values in %).

Another data set relates to harmful plants. Nature of the data set: Post-emergence herbicidal action, summary statements over several weeds. The note with it: 20 g or less per hectare, ALOMY, ECHCG, AVEFA, VERPE. The procedure: as §3

For the compound `Cn1c(C(F)(F)F)cc(=O)n(-c2cc(Oc3ccccc3OCC(=O)OCC3CCCC3)c(Cl)cc2F)c1=O` [I.7-12], in the data set on Oryza sativa (ORYSA), the “Post-emergence effect at 1.25 g/ha against ORYSA in %” value came to 0%. The “Post-emergence effect at 5 g/ha against ORYSA in %” value in the data set on Oryza sativa (ORYSA) is recorded as 20%. Moreover, the “Post-emergence effect at 1.25 g/ha against ZEAMX in %” value in the data set with Zea mays (ZEAMX) was 10%. Moreover, in the data set with Zea mays (ZEAMX), the “Post-emergence effect at 5 g/ha against ZEAMX in %” value turned out to be 20%. The “Post-emergence effect at 1.25 g/ha against TRZAS in %” value in data set [1] amounted to 10%. Also, the “Post-emergence effect at 20 g/ha against TRZAS in %” value in [1] was 20%. In addition, the “Post-emergence effect at 1.25 g/ha against VIOTR in %” value with Viola tricolor (VIOTR) (1.25 g/ha) came to 100%. Besides, the “Post-emergence effect at 5 g/ha against VIOTR in %” value in the data set with Viola tricolor (VIOTR) (5 g/ha) was 100%. In addition, the pest or weed control at 20 g/ha with Viola tricolor (VIOTR) (Viola tricolor, 504 h, 20 g/ha, read-out: Post-emergence effect at 20 g/ha against VIOTR in %) was 100%; with Setaria viridis (SETVI) (Setaria viridis, 504 h, 20 g/ha, read-out: Post-emergence effect at 20 g/ha against SETVI in %), 100%; in [3] (Abutilon theophrasti, 504 h, 20 g/ha, read-out: Post-emergence effect at 20 g/ha against ABUTH in %) it was 100%; in [4] (Alopecurus myosuroides, 504 h, 20 g/ha, read-out: Post-emergence effect at 20 g/ha against ALOMY in %) it was 100%; in data set [5] (Ipomoea purpurea, 504 h, 20 g/ha, read-out: Post-emergence effect at 20 g/ha against PHBPU in %), 100%; in the data set on Veronica persica (VERPE) (Veronica persica, 504 h, 20 g/ha, read-out: Post-emergence effect at 20 g/ha against VERPE in %), 100%. The pest or weed control at 20 g/ha came out at 100% in data set [6] (20 g/ha, read-out: Post-emergence effect at 20 g/ha against AMARE in %); 100% in [7] (Echinochloa crus-galli, 504 h, 20 g/ha, read-out: Post-emergence effect at 20 g/ha against ECHCG in %); 100% in data set [8]; 100% in data set [9] (20 g/ha, read-out: Post-emergence effect at 20 g/ha against POLCO in %). Besides, the “Post-emergence effect at 1.25 g/ha against DIGSA in %” value in data set [2] (1.25 g/ha) is on record as 100%. In addition, in [2] (5 g/ha), the “Post-emergence effect at 5 g/ha against DIGSA in %” value is on record as 100%. In addition, the “Post-emergence effect at 20 g/ha against DIGSA in %” value in [2] (20 g/ha) came out at 100%. Moreover, the “Post-emergence effect at 1.25 g/ha against SETVI in %” value with Setaria viridis (SETVI) (1.25 g/ha) stood at 80%. Moreover, the pest or weed control at 5 g/ha in the data set with Setaria viridis (SETVI) (Setaria viridis, 504 h, 5 g/ha, read-out: Post-emergence effect at 5 g/ha against SETVI in %) came out at 100%; in data set [3] (Abutilon theophrasti, 504 h, 5 g/ha, read-out: Post-emergence effect at 5 g/ha against ABUTH in %) it was 100%; in data set [5] (Ipomoea purpurea, 504 h, 5 g/ha, read-out: Post-emergence effect at 5 g/ha against PHBPU in %) it was 100%; in the data set on Veronica persica (VERPE) (Veronica persica, 504 h, 5 g/ha, read-out: Post-emergence effect at 5 g/ha against VERPE in %), 100%; in [6] (5 g/ha, read-out: Post-emergence effect at 5 g/ha against AMARE in %) it was 100%; in data set [9] (5 g/ha, read-out: Post-emergence effect at 5 g/ha against POLCO in %), 80%. For the same compound, the “Post-emergence effect at 1.25 g/ha against ABUTH in %” value in data set [3] (1.25 g/ha) is recorded as 90%. The “ALOMY (efficacy in %)” value in [4] is reported as 100%. In addition, the “Post-emergence effect at 1.25 g/ha against PHBPU in %” value in data set [5] (1.25 g/ha) amounted to 80%. Also, the “Post-emergence effect at 1.25 g/ha against VERPE in %” value in the data set on Veronica persica (VERPE) (1.25 g/ha) is 90%. Moreover, in data set [6] (1.25 g/ha, read-out: Post-emergence effect at 1.25 g/ha against AMARE in %), the pest or weed control at 1.25 g/ha turned out to be 100%. For the same compound, in data set [7] (5 g/ha), the “Post-emergence effect at 5 g/ha against ECHCG in %” value was determined as 90%. In addition, the “ECHCG (efficacy in %)” value in data set [7] turned out to be 60%. Also, the “AVEFA (efficacy in %)” value with Avena fatura (AVEFA) is 70%. Moreover, the “compatibility with crop plants by comparison with a-27, a-29 or a generically encompassed structure (WO2002/098227)” value with crop plants is listed as “distinctly improved compatibility”. In the data set on harmful plants, the “herbicidal efficacy by comparison with a-27, a-29 or a generically encompassed structure (WO2002/098227)” value is reported as “distinctly improved herbicidal efficacy”.

As for `Cn1c(C(F)(F)F)cc(=O)n(-c2cc(Oc3ccccc3OCC(=O)OC3CCCC3)c(Cl)cc2F)c1=O` [a-27, reference compound], the “ALOMY (efficacy in %)” value in data set [4] was 80%. In addition, the “ECHCG (efficacy in %)” value in data set [7] is recorded as 30%. The “AVEFA (efficacy in %)” value in the data set on Avena fatura (AVEFA) turned out to be 40%.
